Test results reported in patent US20080044390A1, “Methods and compositions for the treatment of neurodegenerative disorders” (priority 2006, published 2008).
Counter-ions that a name gives are not always drawn. Like-named read-outs stand apart in the source and are kept apart here.

Test system: PC12/HttN90Q103 cells
Experiment: CellTiter-Blue assay, rescue of HttN90Q103-induced cell death
Type: cell-based, rat
Conditions: CellTiter-Blue, single agent; for Emax / Max Effect (% rescue): 250 nM tebufenozide induction; for Emax: read-out: Max Effect (% rescue); for EC50: sigmoidal fit of 12-step dose response, read-out: EC50
Description: In this stable PC12 line (PC12/HttN90Q103), transcription of the Htt transgene is driven by an ecdysone-regulated promoter such that the expression of HttN90Q103 can be turned on or off by the addition or removal of the non-steroidal ecdysone analog tebufenozide (teb).
Using the engineered PC12/HttN90Q103 cell line together with Perkin Elmer's ATPlite™ assay kit or CellTiter-Blue™ assay, a high throughput assay to screen small molecules for their ability to prevent mutant Htt exon 1-induced cell death was developed and optimized.
The following formulas were used to calculate mutant Htt-induced cytotoxicity and test compound rescue: % killing=[(un-induced−induced-DMSO treated)/un-induced]×100 % rescue=[(drug treated−induced-DMSO treated)/(un-induced−induced-DMSO treated)]×100
For single-agent ranking, the assay was performed in 384-well plates to obtain duplicate dose response curves in 12-step dilutions with a dosing ratio f=2 over 3 orders of magnitude.
The uncertainty of each fitted parameter was estimated from the range over which the change in reduced chi-squared was less than one, or less than minimum reduced chi-squared if that minimum exceeded one, to allow for underestimated σI errors.
Day 1—Add Compounds 4 hours post-induction • 1) Remove compound plates from dessicator. • 2) Using the PlateMate, prepare dilution plate with 100 μL per well of the complete cell medium at room temperature in clear untreated 384-well plates. • 3) Using the MiniTrak, make compound dilution plates: 1 μL from each well of stock plates into 100 μL of media in the dilution plate for a 1:100 dilution (10× stock in media). • 4) Using the MiniTrak, add 4.5 μL of the diluted stock to each well of cells in assay plates. • 5) Make positive control solution: dilute 20 mM stock of BOC-D-FMK in media for a 10× stock. • 6) Manually add 4.5 μL positive control to C1-N1. • 7) Incubate plates at 37° C. for three days. • (for ranking combinations, steps 5 and 6 are omitted as there is positive control on the compound plates)
Day 4—CellTiter-Blue™ assay • 1) Make solution of 5% CellTiter-Blue™ in Q103 media. • 2) Using the Multidrop, add 40 μL of 5% CellTiter-Blue™ solution to each well of the assay plates. • 3) Incubate plates with CellTiter-Blue™ at 37° C.

SMILES	Emax (Rattus norvegicus, PC-12)	EC50 (Rattus norvegicus, PC-12)	Max Effect (% rescue)	EC50
C[C@]12C=CC(=O)C=C1CC[C@@H]1[C@@H]2CC[C@]2(C)OC(=O)CC[C@@H]12 [Testolactone]	52%	7.6 µM	–	–
CC(=O)c1ccc(S(=O)(=O)NC(=O)NC2CCCCC2)cc1 [Acetohexamide]	18%	3.9 µM	–	–
C=CC[C@@H]1/C=C(\C)C[C@H](C)C[C@H](OC)[C@H]2O[C@@](O)(C(=O)C(=O)N3CCCC[C@H]3C(=O)O[C@H](/C(C)=C/[C@@H]3CC[C@@H](O)[C@H](OC)C3)[C@H](C)[C@@H](O)CC1=O)[C@H](C)C[C@@H]2OC [Tacrolimus (FK-506), Tacrolimus]	36%	0.1 µM	–	–
C[C@]12CC[C@H](O)CC1=CC[C@@H]1[C@@H]2CC[C@]2(C)C(=O)CC[C@@H]12 [Dehydroepiandrosterone]	21%	11 µM	–	–
Cl.NCCc1ccc(S(=O)(=O)F)cc1 [Pefabloc SC]	–	–	34%	6.8 µM
CC(=O)[C@H]1CC[C@H]2[C@@H]3CC=C4C[C@@H](O)CC[C@]4(C)[C@H]3CC[C@]12C [Pregnenolone, 5-pregnen-3β-ol-20-one]	–	–	22%	11.9 µM
O=C1NCCC1=Cc1ccc2c(c1)OCO2 [Heat shock protein inhibitor I (KNK-437), 3,4-methylenedioxy-benzylidine-γ-butyrolactam]	–	–	20%	8.2 µM
COc1ccc(CNC(=O)Nc2ncc([N+](=O)[O-])s2)cc1 [GSK-3β inhibitor VIII (AR-A014418), N-(4-Methoxybenzyl)-N′-(5-nitro-1,3-thiazol-2-yl)urea]	43%	3.6 µM	–	–
O=c1cc(-c2ccccc2)oc2cc(O)cc(O)c12 [Chrysin]	14%	1.1 µM	–	–
CO[C@@H]1[C@@H](OC(N)=O)[C@@H](O)[C@H](Oc2ccc3c(O)c(NC(=O)c4ccc(O)c(CC=C(C)C)c4)c(=O)oc3c2C)OC1(C)C [Novobiocin]	27%	3 µM	–	–
C=C[C@@]1(C)CC(=O)[C@]2(O)[C@@]3(C)[C@@H](O)CCC(C)(C)[C@@H]3[C@H](OC(=O)CCN(C)C)[C@H](OC(C)=O)[C@@]2(C)O1 [NKH-477, 6-(3-dimethylaminopropionyl)forskolin]	–	–	69%	7.2 µM
Cc1ccc(C(=O)Cn2c3c(sc2=N)CCCC3)cc1 [Pifithrin α, 2-(2-imino-4,5,6,7-tetrahydrobenzothiazol-3-yl)-1-p-tolylethanone hydrobromide]	15%	6 µM	–	–
C[N+](C)(C)CCOC(N)=O [Carbachol]	15%	6.8 µM	–	–
c1ccc2c(c1)[I+]c1ccccc1-2 [Diphenyleneiodonium]	26%	0.1 µM	–	–
C=C1C[C@@H]2[C@H](CC[C@]3(C)C(=O)CC[C@@H]23)[C@@]2(C)C=CC(=O)C=C12 [Exemestane]	16%	1.5 µM	–	–
Cc1c(C)c2c(c(C)c1O)CCC(C)(COc1ccc(CC3SC(=O)NC3=O)cc1)O2 (stereo not drawn) [Troglitazone]	49%	17.8 µM	–	–
Oc1ccc(Cl)cc1Cc1ccccc1 [Clorophene]	30%	0.9 µM	–	–
CN1c2c(nc(N)[nH]c2=O)NCC1CNc1ccc(C(=O)N[C@@H](CCC(=O)O)C(=O)O)cc1 (stereo partly drawn) [5-methyl-5-6-7-8-tetrahydropteroylglutamic-acid]	–	–	34%	9.3 µM
NC(=O)c1ncn([C@@H]2O[C@H](CO)[C@@H](O)[C@H]2O)c1N [Aicar]	–	–	23%	14.1 µM
C[C@H]1O[C@@H](O[C@H]2[C@@H](O)C[C@H](O[C@H]3[C@@H](O)C[C@H](O[C@H]4CC[C@@]5(C)[C@H](CC[C@@H]6[C@@H]5CC[C@]5(C)[C@@H](C7=CC(=O)OC7)CC[C@]65O)C4)O[C@@H]3C)O[C@@H]2C)C[C@H](O)[C@@H]1O [Digitoxin]	11%	3.5 µM	–	–
COC(=O)CC[C@@H](C)[C@H]1CC[C@H]2[C@@H]3[C@H](OC(C)=O)C[C@@H]4C[C@H](OC(C)=O)CC[C@]4(C)[C@H]3CC[C@]12C [Chenodeoxycholic acid diacetate methyl ester]	–	–	24%	2.1 µM
